Data as given in patent US20140225048A1, “LIQUID COMPOSITION, AND COLOR-FILTER RESIST COMPOSITION, THERMAL-TRANSFER RECORDING SHEET AND INK WHICH MAKE USE OF THE LIQUID COMPOSITION” (CANON KABUSHIKI KAISHA, priority 2011, published 2014).

Assay: Examination of solubility of compounds in toluene
Conditions: in toluene at room temperature

Compound	Solubility
Cn1c(=O)cc2c3c(c(Nc4ccccc4)ccc31)C(=O)c1ccccc1-2 [(1)]	≦1%
Cc1ccc(Nc2ccc3c4c(cc(=O)n3C)-c3ccccc3C(=O)c24)cc1 [(2)]	≦1%
Cc1cccc(Nc2ccc3c4c(cc(=O)n3C)-c3ccccc3C(=O)c24)c1 [(3)]	≦1%
Cc1ccc(Nc2ccc3c4c(cc(=O)n3-c3ccc(C)cc3)-c3ccccc3C(=O)c24)cc1 [(4)]	≦1%
O=C1c2ccccc2-c2cc(=O)n(C3CCCCC3)c3ccc(NC4CCCCC4)c1c23 [(5)]	≦0.1% ^

The next lines start with the values.

Solubility	Compound
5%	CCCCC(CC)CNc1ccc2c3c(cc(=O)n2C)-c2ccccc2C(=O)c13 (stereo not drawn) [Compound (1)]
≧10%^	CCCCC(CC)CNc1ccc2c3c(cc(=O)n2CC(CC)CCCC)-c2ccccc2C(=O)c13 (stereo not drawn) [Compound (5)]
≧10%^	CCCCCCCCCCCCNc1ccc2c3c(cc(=O)n2CCCC)-c2ccccc2C(=O)c13 [Compound (8)]
≧10%^	CCCCn1c(=O)cc2c3c(c(NCCC4=CCCCC4)ccc31)C(=O)c1ccccc1-2 [Compound (9)]
